Target: IKZF2 (Homo sapiens (Human), UniProt Q96SW2+Q9UKS7)
Test: IKZF2 HiBiT Assay (Jurkat-IKZF2-HiBiT cell line)
Type: cell-based
Settings: Jurkat-IKZF2-HiBiT cells, 24 hours; for DC50: read-out: HiBit assay degradation analysis DC50; for Dmax: read-out: HiBit assay degradation analysis Dmax
In short: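 IKZF2 degradation was assessed as HiBiT luminescence in Jurkat-IKZF2-HiBiT cells, using lytic detection after 24 h of compound treatment at 37 °C, 5% CO2.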

Chain of IKZF2 (Q9UKS7 whole entry): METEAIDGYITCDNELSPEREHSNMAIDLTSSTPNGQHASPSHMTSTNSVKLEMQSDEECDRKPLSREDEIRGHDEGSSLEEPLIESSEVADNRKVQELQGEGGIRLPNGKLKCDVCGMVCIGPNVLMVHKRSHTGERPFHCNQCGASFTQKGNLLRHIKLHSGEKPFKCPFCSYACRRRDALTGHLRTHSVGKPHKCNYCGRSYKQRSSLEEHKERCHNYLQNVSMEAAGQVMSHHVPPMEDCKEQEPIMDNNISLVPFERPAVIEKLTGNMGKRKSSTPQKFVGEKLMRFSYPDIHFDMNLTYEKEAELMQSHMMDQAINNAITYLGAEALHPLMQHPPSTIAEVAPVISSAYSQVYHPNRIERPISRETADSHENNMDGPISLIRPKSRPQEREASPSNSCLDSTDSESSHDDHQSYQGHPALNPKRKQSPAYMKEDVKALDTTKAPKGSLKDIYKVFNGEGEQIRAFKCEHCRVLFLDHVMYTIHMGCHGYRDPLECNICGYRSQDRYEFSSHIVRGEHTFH
Chain of IKZF2 (Q96SW2 whole entry): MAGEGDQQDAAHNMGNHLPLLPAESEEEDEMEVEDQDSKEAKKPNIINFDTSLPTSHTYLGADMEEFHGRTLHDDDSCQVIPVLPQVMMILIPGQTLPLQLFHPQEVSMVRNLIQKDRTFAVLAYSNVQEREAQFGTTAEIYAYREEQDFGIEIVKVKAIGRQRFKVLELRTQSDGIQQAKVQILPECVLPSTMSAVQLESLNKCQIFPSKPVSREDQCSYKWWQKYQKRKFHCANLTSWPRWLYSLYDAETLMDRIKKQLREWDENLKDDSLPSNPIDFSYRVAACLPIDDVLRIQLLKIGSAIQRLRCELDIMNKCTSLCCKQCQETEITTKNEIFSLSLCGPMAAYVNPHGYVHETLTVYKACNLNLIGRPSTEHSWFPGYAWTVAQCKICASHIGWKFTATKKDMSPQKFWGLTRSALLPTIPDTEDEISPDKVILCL
Chain of IKZF2 (Q16531 whole entry partner): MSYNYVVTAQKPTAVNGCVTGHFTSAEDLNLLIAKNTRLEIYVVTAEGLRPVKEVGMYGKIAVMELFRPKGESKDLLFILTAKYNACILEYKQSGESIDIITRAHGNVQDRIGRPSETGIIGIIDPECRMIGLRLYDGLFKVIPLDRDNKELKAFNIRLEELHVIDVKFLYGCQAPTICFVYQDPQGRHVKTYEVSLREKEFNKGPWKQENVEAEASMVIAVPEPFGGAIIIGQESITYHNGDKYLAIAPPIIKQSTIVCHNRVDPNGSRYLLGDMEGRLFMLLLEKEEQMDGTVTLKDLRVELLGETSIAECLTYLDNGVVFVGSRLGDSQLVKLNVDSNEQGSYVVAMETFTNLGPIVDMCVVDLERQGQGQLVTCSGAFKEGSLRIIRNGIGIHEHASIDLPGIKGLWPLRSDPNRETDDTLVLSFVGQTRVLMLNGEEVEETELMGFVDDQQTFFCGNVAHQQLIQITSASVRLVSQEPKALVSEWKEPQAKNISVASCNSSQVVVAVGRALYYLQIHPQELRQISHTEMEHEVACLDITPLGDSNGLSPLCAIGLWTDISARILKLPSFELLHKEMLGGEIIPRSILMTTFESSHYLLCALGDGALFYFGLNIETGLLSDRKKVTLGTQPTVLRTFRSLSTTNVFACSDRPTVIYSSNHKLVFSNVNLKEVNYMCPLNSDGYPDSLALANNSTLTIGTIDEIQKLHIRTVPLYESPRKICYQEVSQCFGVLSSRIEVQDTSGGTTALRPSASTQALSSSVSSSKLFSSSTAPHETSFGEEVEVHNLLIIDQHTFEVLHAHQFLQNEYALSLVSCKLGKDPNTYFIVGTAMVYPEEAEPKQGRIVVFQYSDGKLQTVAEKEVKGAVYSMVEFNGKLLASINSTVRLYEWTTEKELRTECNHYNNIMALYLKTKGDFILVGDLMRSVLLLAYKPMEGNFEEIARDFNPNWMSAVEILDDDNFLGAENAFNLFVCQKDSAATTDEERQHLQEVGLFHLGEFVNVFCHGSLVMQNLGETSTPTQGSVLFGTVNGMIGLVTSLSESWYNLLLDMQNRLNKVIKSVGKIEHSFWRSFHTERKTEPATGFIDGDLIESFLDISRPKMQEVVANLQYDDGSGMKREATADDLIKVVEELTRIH

## O=C1CCC(N2Cc3c(ccc4c3OCC43CCN(Cc4ccn(-c5ccccc5F)n4)CC3)C2=O)C(=O)N1 (stereo not shown) [Compound A323, 3-(1′-((1-(2-fluorophenyl)-1H-pyrazol-3-yl)methyl)-6-oxo-6,8-dihydro-2H,7H-spiro[furo[2,3-e]isoindole-3,4′-piperidin]-7-yl)piperidine-2,6-dione]
  DC50: > 0.5 µM
  Dmax: < 40%

## O=C1CCC(N2Cc3c(ccc4c3OCC43CCN(Cc4nccc5c4CCCC5)CC3)C2=O)C(=O)N1 (stereo not shown) [Compound A324, 3-(6-oxo-1′-((5,6,7,8-tetrahydroisoquinolin-1-yl)methyl)-6,8-dihydro-2H,7H-spiro[furo [2,3-e]isoindole-3,4′-piperidin]-7-yl)piperidine-2,6-dione]
  DC50: > 0.5 µM
  Dmax: 40 to 60%

## O=C1CCC(N2Cc3c(ccc4c3OCC43CCN(Cc4cnc5c(c4)CCCC5)CC3)C2=O)C(=O)N1 (stereo not shown) [Compound A325, 3-(6-oxo-1′-((5,6,7,8-tetrahydroquinolin-3-yl)methyl)-6,8-dihydro-2H,7H-spiro[furo [2,3-e]isoindole-3,4′-piperidin]-7-yl)piperidine-2,6-dione]
  DC50: > 0.5 µM
  Dmax: < 40%

## CC1(C)Cc2c(CN3CCC4(CC3)COc3c4ccc4c3CN(C3CCC(=O)NC3=O)C4=O)cccc2O1 (stereo not shown) [Compound A326, 3-(1′-((2,2-dimethyl-2,3-dihydrobenzofuran-4-yl)methyl)-6-oxo-6,8-dihydro-2H,7H-spiro[furo[2,3-e]isoindole-3,4′-piperidin]-7-yl)piperidine-2,6-dione]
  DC50: > 0.5 µM
  Dmax: 40 to 60%

## CC1(C)CCc2cccc(CN3CCC4(CC3)COc3c4ccc4c3CN(C3CCC(=O)NC3=O)C4=O)c2O1 (stereo not shown) [Compound A327, 3-(1′-((2,2-dimethylchroman-8-yl)methyl)-6-oxo-6,8-dihydro-2H,7H-spiro[furo[2,3-e]isoindole-3,4′-piperidin]-7-yl)piperidine-2,6-dione]
  DC50: 0.05 to 0.2 µM
  Dmax: 60 to 80%

## O=C1CCC(N2Cc3c(ccc4c3OCC43CCN(Cc4nn(CC5COCCO5)c5ccccc45)CC3)C2=O)C(=O)N1 (stereo not shown) [Compound A328, 3-(1′-((1-((1,4-dioxan-2-yl)methyl)-1H-indazol-3-yl)methyl)-6-oxo-6,8-dihydro-2H,7H-spiro[furo[2,3-e]isoindole-3,4′-piperidin]-7-yl)piperidine-2,6-dione]
  DC50: < 0.05 µM
  Dmax: 60 to 80%

## O=C1CCC(N2Cc3c(ccc4c3OCC43CCN(Cc4nn(CC5CCCCC5)c5ccccc45)CC3)C2=O)C(=O)N1 (stereo not shown) [Compound A329, 3-(1′-((1-(cyclohexylmethyl)-1H-indazol-3-yl)methyl)-6-oxo-6,8-2H,7H-spiro[furo[2,3-e]isoindole-3,4′-piperidin]-7-yl)piperidine-2,6-dione]
  DC50: 0.05 to 0.2 µM
  Dmax: 60 to 80%

## CCC(c1ccccc1)N1CCC2(CC1)COc1c2ccc2c1CN(C1CCC(=O)NC1=O)C2=O (stereo not shown) [Compound A330, 3-(6-oxo-1′-(1-phenylpropyl)-6,8-dihydro-2H,7H-spiro[furo[2,3-e]isoindole-3,4′-piperidin]-7-yl)piperidine-2,6-dione]
  DC50: < 0.05 µM
  Dmax: 60 to 80%

## O=C1CCC(N2Cc3c(ccc4c3OCC43CCN(Cc4cnn(-c5ccccc5Cl)c4)CC3)C2=O)C(=O)N1 (stereo not shown) [Compound A331, 3-(1′-((1-(2-chlorophenyl)-1H-pyrazol-4-yl)methyl)-6-oxo-6,8-dihydro-2H,7H-spiro[furo[2,3-e]isoindole-3,4′-piperidin]-7-yl) piperidine-2,6-dione]
  DC50: > 0.5 µM
  Dmax: < 40%

## O=C1CCC(N2Cc3c(ccc4c3OCC43CCN(C[C@H]4C[C@@H]4c4ccccc4)CC3)C2=O)C(=O)N1 (stereo partly drawn) [Compound A332, 3-(6-oxo-1′-(((1S,2S)-2-phenylcyclopropyl)methyl)-6,8-dihydro-2H,7H-spiro[furo[2,3-e]isoindole-3,4′-piperidin]-7-yl)piperidine-2,6-dione]
  DC50: > 0.5 µM

## O=C1CCC(N2Cc3c(ccc4c3OCC43CCN(CC4(c5ccccc5)CC4)CC3)C2=O)C(=O)N1 (stereo not shown) [Compound A333, 3-(6-oxo-1′-((1-phenylcyclopropyl)methyl)-6,8-dihydro-2H,7H-spiro[furo[2,3-e]isoindole-3,4′-piperidin]-7-yl)piperidine-2,6-dione]
  DC50: > 0.5 µM
  Dmax: 40 to 60%

## O=C1CCC(N2Cc3c(ccc4c3OCC43CCN(CC4(c5ccccc5)CCC4)CC3)C2=O)C(=O)N1 (stereo not shown) [Compound A334, 3-(6-oxo-1′-((1-phenylcyclobutyl)methyl)-6,8-dihydro-2H,7H-spiro[furo[2,3-e]isoindole-3,4′-piperidin]-7-yl)piperidine-2,6-dione]
  DC50: > 0.5 µM
  Dmax: 40 to 60%

## O=C1CCC(N2Cc3c(ccc4c3OCC43CCN(Cc4ncn(-c5ccccc5)n4)CC3)C2=O)C(=O)N1 (stereo not shown) [Compound A335, 3-(6-oxo-1′-((1-phenyl-1H-1,2,4-triazol-3-yl)methyl)-6,8-dihydro-2H,7H-spiro[furo[2,3-e]isoindole-3,4′-piperidin]-7-yl)piperidine-2,6-dione]
  DC50: > 0.5 µM
  Dmax: < 40%

## O=C1CCC(N2Cc3c(ccc4c3OCC43CCN(Cc4cnn(S(=O)(=O)c5ccccc5)c4)CC3)C2=O)C(=O)N1 (stereo not shown) [Compound A336, 3-(6-oxo-1′-((1-(phenylsulfonyl)-1H-pyrazol-4-yl)methyl)-6,8-dihydro-2H,7H-spiro[furo[2,3-e]isoindole-3,4′-piperidin]-7-yl)piperidine-2,6-dione]
  DC50: > 0.5 µM
  Dmax: 40 to 60%

## O=C1CCC(N2Cc3c(ccc4c3OCC43CCN(Cc4cnn(S(=O)(=O)c5ccccc5F)c4)CC3)C2=O)C(=O)N1 (stereo not shown) [Compound A337, 3-(1′-((1-((2-fluorophenyl)sulfonyl)-1H-pyrazol-4-yl)methyl)-6-oxo-6,8-dihydro-2H,7H-spiro[furo[2,3-e]isoindole-3,4′-piperidin]-7-yl)piperidine-2,6-dione]
  DC50: 0.05 to 0.2 µM
  Dmax: 60 to 80%

## O=C1CCC(N2Cc3c(ccc4c3OCC43CCN(Cc4ccc(OCc5ccccc5)cn4)CC3)C2=O)C(=O)N1 (stereo not shown) [Compound A338, 3-(1′-((5-(benzyloxy)pyridin-2-yl)methyl)-6-oxo-6,8-dihydro-2H,7H-spiro[furo[2,3-e]isoindole-3,4′-piperidin]-7-yl)piperidine-2,6-dione]
  DC50: > 0.5 µM
  Dmax: < 40%

## O=C1CCC(N2Cc3c(ccc4c3OCC43CCN(Cc4ccc(OCc5ccccc5)nc4)CC3)C2=O)C(=O)N1 (stereo not shown) [Compound A339, 3-(1′-((6-(benzyloxy)pyridin-3-yl)methyl)-6-oxo-6,8-dihydro-2H,7H-spiro[furo[2,3-e]isoindole-3,4′-piperidin]-7-yl)piperidine-2,6-dione]
  DC50: > 0.5 µM
  Dmax: 40 to 60%

## O=C1CCC(N2Cc3c(ccc4c3OCC43CCN(Cc4ccc(S(=O)(=O)c5ccccc5)cc4)CC3)C2=O)C(=O)N1 (stereo not shown) [Compound A340, 3-(6-oxo-1′-(4-(phenylsulfonyl)benzyl)-6,8-dihydro-2H,7H-spiro[furo[2,3-e]isoindole-3,4′-piperidin]-7-yl)piperidine-2,6-dione]
  DC50: > 0.5 µM
  Dmax: 40 to 60%

## COCCn1cc2cc(CN3CCC4(CC3)COc3c4ccc4c3CN(C3CCC(=O)NC3=O)C4=O)ccc2n1 (stereo not shown) [Compound A341, 3-(1′-((2-(2-methoxyethyl)-2H-indazol-5-yl)methyl)-6-oxo-6,8-dihydro-2H,7H-spiro[furo[2,3-e]isoindole-3,4′-piperidin]-7-yl) piperidine-2,6-dione]
  DC50: > 0.5 µM
  Dmax: < 40%
